Reference: US9174964B2, “AMPK-activating piperidinyloxy-substituted 2,3-dihydro-1H-indene-1-amine compounds and pharmaceutical compositions including the same” (Rigel Pharmaceuticals, Inc., priority 2007, dated 2015)
pEC50: −log10 of the molar value.

biological target: AMPK; assay: AMPK activation, enzyme-linked immunosorbent assay; format: biochemical; conditions: Table 3, AMPK activation, ELISA

| pEC50 | SMILES |
| --- | --- |
| 6.30 to 7.00 | O=S(=O)(NC1CCN(Cc2cccc(C(F)(F)F)c2)CC1)c1ccc(OC2CCN(c3ccc(C(F)(F)F)cc3)CC2)nc1 [Compound 59, N-(1-(3-(trifluoromethyl)benzyl)piperidin-4-yl)-6-(1-(4-(trifluoromethyl)phenyl)piperidin-4-yloxy)pyridine-3-sulfonamide] |

same assay, conditions: Table 4, AMPK activation, ELISA

| pEC50 | SMILES |
| --- | --- |
| 6.30 to 7.00 | CC(C)(C)OC(=O)N1CCC(NC(=O)c2cc3ccc(OC4CCN(c5ccc(OC(F)(F)F)cc5)CC4)cc3o2)CC1 [Compound 81, tert-butyl 4-(6-(1-(4-(trifluoromethoxy)phenyl)piperidin-4-yloxy)benzofuran-2-carboxamido)piperidine-1-carboxylate] |
| > 7.00 | N#Cc1ccc(CN2CCC(Oc3ccc4oc(C(=O)NC5CCN(Cc6ccccc6)CC5)cc4c3)CC2)cc1 [Compound 70, N-(1-benzylpiperidin-4-yl)-5-(1-(4-cyanobenzyl)piperidin-4-yloxy)benzofuran-2-carboxamide] |
| < 4.30 | O=C(N[C@@H]1CCNC1)c1cc2cc(OC3CCN(c4ccc(C(F)(F)F)cc4)CC3)ccc2o1 [Compound 121, (R)-N-(pyrrolidin-3-yl)-5-(1-(4-(trifluoromethyl)phenyl)piperidin-4-yloxy)benzofuran-2-carboxamide] |
| 6.30 to 7.00 | O=C(NC1CCN(Cc2ccccc2)CC1)c1cc2cc(OC3CCN(Cc4ccc(Cl)cc4)CC3)ccc2o1 [Compound 72, N-(1-benzylpiperidin-4-yl)-5-(1-(4-chlorobenzyl)piperidin-4-yloxy)benzofuran-2-carboxamide] |
| > 7.00 | CN(C(=O)c1cc2cc(OC3CCN(c4ccc(C(F)(F)F)cc4)CC3)ccc2o1)C1CCN(Cc2ccc(C#N)cc2)CC1 [Compound 107, N-(1-(4-cyanobenzyl)piperidin-4-yl)-N-methyl-5-(1-(4-(trifluoromethyl)phenyl)piperidin-4-yloxy)benzofuran-2-carboxamide] |
| > 7.00 | O=C(NC1CCN(Cc2ccc(F)cc2)CC1)c1cc2ccc(OC3CCN(c4ccc(OC(F)(F)F)cc4)CC3)cc2o1 [Compound 94, N-(1-(4-fluorobenzyl)piperidin-4-yl)-6-(1-(4-(trifluoromethoxy)phenyl)piperidin-4-yloxy)benzofuran-2-carboxamide] |
| 6.30 to 7.00 | O=C(N[C@@H]1CCN(Cc2cccnc2)C1)c1cc2cc(OC3CCN(c4ccc(C(F)(F)F)cc4)CC3)ccc2o1 [Compound 123, (R)-N-(1-(pyridin-3-ylmethyl)pyrrolidin-3-yl)-5-(1-(4-(trifluoromethyl)phenyl)piperidin-4-yloxy)benzofuran-2-carboxamide] |
| > 7.00 | O=C(NC1CCN(Cc2cccnc2)CC1)c1cc2ccc(OC3CCN(c4ccc(C(F)(F)F)cc4)CC3)cc2o1 [Compound 96, N-(1-(pyridin-3-ylmethyl)piperidin-4-yl)-6-(1-(4-(trifluoromethyl)phenyl)piperidin-4-yloxy)benzofuran-2-carboxamide] |
| 6.30 to 7.00 | N#Cc1ccc(CN2CCC(Oc3ccc4oc(C(=O)NC5CCN(Cc6ccccc6)CC5)cc4c3)CC2)cc1 [Compound 114, N-(1-benzylpiperidin-4-yl)-5-(1-(4-cyanobenzyl)piperidin-4-yloxy)benzofuran-2-carboxamide] |

same assay, conditions: Table 5, AMPK activation, ELISA

| pEC50 | SMILES |
| --- | --- |
| 6.30 to 7.00 | O=C(NC1CCN(Cc2ccccn2)CC1)c1sc2cc(OC3CCN(c4ccc(C(F)(F)F)cc4)CC3)ccc2c1Cl [Compound 153, 3-chloro-N-(1-(pyridin-2-ylmethyl)piperidin-4-yl)-6-(1-(4-(trifluoromethyl)phenyl)piperidin-4-yloxy)benzo[b]thiophene-2-carboxamide] |
| 4.30 to 6.00 | O=C(NC1CCNCC1)c1cc2cc(OC3CCN(c4ccc(C(F)(F)F)cc4)CC3)ccc2s1 [Compound 150, N-(piperidin-4-yl)-5-(1-(4-(trifluoromethyl)phenyl)piperidin-4-yloxy)benzo[b]thiophene-2-carboxamide] |

same assay, conditions: Table 6, AMPK activation, ELISA

| pEC50 | SMILES |
| --- | --- |
| < 4.00 | FC(F)(F)c1ccc(N2CCC(Oc3ccc4c(c3)CCC4NC3CCNCC3)CC2)cc1 (stereo not shown) [Compound 157, N-(5-(1-(4-(trifluoromethyl)phenyl)piperidin-4-yloxy)-2,3-dihydro-1H-inden-1-yl)piperidin-4-amine] |
